Results published in patent publication US20160310389A1, “Low Viscosity Hair Care Composition” (The Procter & Gamble Company, priority 2015, published 2016).

How the values were obtained:
Assay type in all cases: physicochemical
[1] = NMR self-diffusion coefficients and specific diffusivity ratio; conditions: for Specific diffusivity ratio measured at 4%: diffusion coefficient of the viscosity reducing agent/diffusion coefficient of the surfactant, 4% additive; for Diffusion Coefficient (m^2/s) surfactant at 4% additive: surfactant self-diffusion
Experimental: Now referring to Table 5, the specified viscosity reducing agents were added to the formula at a level of 4% in absence of other viscosity reducing agents. Diffusion coefficients were determined using a vendor-supplied pulse sequence (“ledbpgq2s”, stimulated echo with bipolar gradients and convection compensation) using a Bruker Avance 700 MHz NMR spectrometer equipped with a Diff-30 high gradient diffusion probe. Gradient pulse durations ranged between 1700-2700 us, with diffusion periods ranging from 50-100 ms. 32 linearly-spaced gradient values were used ranging from 2%-95% of 40 A current, with resulting gradient strengths given by 30 Gauss/cm/A. Data were processed using software written in-house. It is often necessary to fit more than one diffusion coefficient to individual signals. Average diffusion coefficients are reported in these cases. Averages were calculated by averaging the reciprocals of the diffusion coefficients and then taking the reciprocal of that average.
The specific diffusivity ratio is calculated as the ratio of the diffusion coefficient of the viscosity reducing agent/diffusion coefficient of the surfactant.
Two mechanisms of viscosity reduction are hypothesized based on self-diffusion coefficients. This leads to a simple diagnostic measurement to classify perfumes by their mechanism of viscosity reduction. That diagnostic is the ratio of the perfume self-diffusion coefficient to the surfactant self-diffusion coefficient (specific diffusivity ratio). In mechanism 1, the surfactant diffusion coefficient is not reduced, and may be increased, while the perfume diffusion coefficient is faster still. In mechanism 2, the surfactant and perfume diffusion coefficient are reduced to relatively small, nearly equal values. For mechanism 1, the viscosity reducing agent diffuses faster than the surfactant (specific diffusivity ratio>1), whereas for mechanism 2, the viscosity reducing agent diffuses slower than the surfactant (specific diffusivity ratio<1).

[2] = Kinematic viscosity of surfactant base formulation with added agent (calibrated Cannon viscometers); conditions: for Kinematic viscosity at 40 C., 2% oil: 2% agent in base formulation; for Kinematic viscosity at 40 C., 4% oil: 4% agent in base formulation; for Kinematic viscosity at 40 C., 6% oil: 6% agent in base formulation; for Kinematic viscosity at 40 C., 8% oil: 8% agent in base formulation; for Lowest viscosity achieved: kinematic viscosity at 40° C., lowest over 2%, 4%, 6%, 8% agent in base formulation (24% sodium undecyl sulfate, 6% lauramidopropyl betaine, 1.6% perfume)
Excerpt: Referring to Tables 1 and 2, the base formulations were made by mixing 1.6% perfume, 24% sodium undecyl sulfate (CAS#1072-24-8) active, 6% lauramidopropyl betaine (CAS#4292-10-8) active and 60.4% deionized water which leaves 8% unfilled for the addition of a viscosity reducing agent (the balance being filled in by distilled water). For all compositions, the surfactant, water and additives including viscosity reducing agents were expected to be in a single phase.
The agents from Tables 1 and 2 were added to the base formulation at a percentage of 2%, 4%, 6%, and 8% into the above surfactant solution. The subsequent formulations were vortexed and put into oven at 60° C. overnight to form homogeneous solution. The viscosities of the formulations were measured with calibrated viscometers (Size 200/350/450) from Cannon Instrument Company (2139 High Tech Road, State College, Pa., USA, 16803).
After the equilibration, the formulations were drawn to reach the starting mark with a rubber suction bulb and the flow time between the starting mark and end mark was recorded for calculation. Each formulation was measured three times to calculate average and standard deviation. Between samples, viscometer was cleaned with water and acetone to rinse off residual.
Viscosity values were calculated based on the equation:
Viscosity (mm^2/s (cSt))=Time (s)*Constant (mm^2/s^2·(cSt/s))
The time in the above equation is the flow time recorded in the experiment and the constant numbers for each calibrated viscometer were obtained from the manuals.

[3] = SAXS correlation length of the micelles; conditions: for Change in correlation length compared to control: control 51 A
Excerpt: Now referring to Table 4, SAXS (Small angle x-ray scattering) was used to characterize the structure of the surfactant aggregates. For these set of samples, the broad peak represents the correlation length (CL) of the micelles and was used to differentiate between the different formulations.
SAXS data was collected with a Bruker NanoSTAR (Bruker AXS Inc., Madison, Wis., U.S.A.) using the micro-focus, Cu x-ray tube, operating at 45 kV, 0.650 mA. The sample to detector distance was 112.050 cm and the detector was Vantec2K 2-dimensional area detector. Samples were placed in 2 mm quartz capillaries, sealed with expoxy resin to prevent evaporation. The sealant is permitted to cure for 2 hours at RT (room temperature) prior to loading into the SAXS sample chamber for data acquisition under vacuum with a data collection time of 1200 s. The data acquisition angular range is 0.3° to 3.0° […], to observe the presence and location of any intensity bands in the x-ray scattering pattern.
Each raw 2-D SAXS data is integrated azimuthally and plotted versus the scattering vector (q), which is expressed as a […] in units of angstroms (1/Å). • The values for q are calculated by the SAXS instrument according to the following equation: […]
Where: 2θ is the scattering angle; and λ is the wavelength used. For each formulation analyzed, the location of each intensity peak on the plot of (Intensity) I vs q is identified and recorded.

SMILES	Specific diffusivity ratio measured at 4% [1]	Diffusion Coefficient (m^2/s) surfactant at 4% additive [1] [m^2/s]	Kinematic viscosity at 40 C., 2% oil [2] [cSt]	Kinematic viscosity at 40 C., 4% oil [2] [cSt]	Kinematic viscosity at 40 C., 6% oil [2] [cSt]	Kinematic viscosity at 40 C., 8% oil [2] [cSt]	Lowest viscosity achieved [2] [cSt]	Correlation length peak [A] ([3]; 2% oil)	Change in correlation length compared to control ([3]; 2% oil) [%]	Correlation length peak [A] ([3]; 4% oil)	Change in correlation length compared to control ([3]; 4% oil) [%]
C=CC(C)(CCC=C(C)C)OC(=O)C(C)C (stereo not drawn) [Linalyl Iso Butyrate]	0.7224	2.5217E−12	223.4	73.0	37.7	39.9	38	56	9.8	61	19.6
CC(C)=CCC/C(C)=C/COC(=O)Cc1ccccc1 [Geranyl Phenyl Acetate]	0.8119	3.6554E−12	224.0	76.0	34.3	36.6	34	55	7.8	60	17.6
CC(=O)OCCC(C)CCC=C(C)C (stereo not drawn) [Citronellyl Acetate]	–	–	362.7	–	–	–	363	–	–	–	–
C=C(C)[C@H]1CC=C(C)CC1 [Dipentene]	–	–	307.6	74.5	35.1	42.6	35	–	–	–	–
CCC(CC(C)CC)=NO (stereo not drawn) [5-Methyl-3-Heptanone Oxime]	–	–	246.3	–	–	–	246	–	–	–	–
CC(C)CC=C(C=O)C(C)C [2-Isopropyl-5-methyl-2-hexenal]	–	–	332.3	–	–	–	332	–	–	–	–
CCC(=O)OC1CC2CC1C1CC=CC21 (stereo not drawn) [Cyclaprop]	–	–	404.2	–	–	–	404	–	–	–	–
CCCCCCCC(OC)OC [1,1-Dimethoxyoctane]	–	–	500.7	308.1	–	–	308	–	–	–	–
CC1=CC=C(C(C)C)CC1 [alpha-Terpinene]	–	–	324.4	96.0	41.5	46.7	42	–	–	–	–
CC(C)CCOC(=O)c1ccccc1O [Isoamyl Salicylate]	–	–	460.3	193.2	–	–	193	–	–	–	–
CC(C)COC(=O)c1ccccc1O [Iso Butyl Salicylate]	–	–	408.7	–	–	–	409	–	–	–	–
CC12CCC(CC1=O)C2(C)C (stereo not drawn) [Camphor Gum]	–	–	365.8	127.2	–	–	127	–	–	–	–
